Assay results taken from ChEMBL document CHEMBL5316313, “Discovery of Novel 3-Phenylpiperidine Derivatives Targeting the β-Catenin/B-Cell Lymphoma 9 Interaction as a Single Agent and in Combination with the Anti-PD-1 Antibody for the Treatment of Colorectal Cancer” (J Med Chem, 2023).
The source made the active and inactive calls. The calls are words filed in the database; no cut-off is given here.

Tests used:
[1] = system: HCT-116; test: Induction of apoptosis in Wnt-dependent human HCT-116 cells assessed as early apoptotic cells at 10 uM incubated for 24 hrs by Annexin V-Alexa Fluor 647/PI staining based flow cytomtery (Rvb=14.3%); assay type: functional
[2] = Toxicity in BALB/c mouse xenografted with mouse CT26 cells assessed as pathological changes in kidney at 30 mg/kg, ip QD in presence of anti-PD-1 antibody cotreatment at 10 mg/kg,ip BIW by hematoxylin and eosin staining based microscopic analysis; assay type: organism-based; settings: in vivo
[3] = Clearance in Sprague-Dawley rat at 21 mg/kg, ip and measured upto 24 hrs by LC-MS analysis; assay type: ADME, organism-based; settings: in vivo
[4] = Toxicity in BALB/c mouse xenografted with mouse CT26 cells assessed as pathological changes in heart at 30 mg/kg, ip QD in presence of anti-PD-1 antibody cotreatment at 10 mg/kg,ip BIW by hematoxylin and eosin staining based microscopic analysis; assay type: organism-based; settings: in vivo
[5] = system: HCT-116; test: Antiproliferative activity against Wnt-dependent human HCT-116 cells assessed as cell growth inhibition incubated for 48 hrs by CellTiter-Glo assay; assay type: functional, cell-based
[6] = Cmax in Sprague-Dawley rat at 21 mg/kg, ip and measured upto 24 hrs by LC-MS analysis; assay type: ADME, organism-based; set-up: dose 21 mg/kg, time < 24 hrs, route ip; settings: in vivo
[7] = Toxicity in BALB/c mouse xenografted with mouse CT26 cells assessed as pathological changes in spleen at 30 mg/kg, ip QD in presence of anti-PD-1 antibody cotreatment at 10 mg/kg,ip BIW by hematoxylin and eosin staining based microscopic analysis; assay type: organism-based; settings: in vivo
[8] = system: A549; test: Antiproliferative activity against Wnt-independent human A549 cells assessed as cell growth inhibition at 40 uM incubated for 48 hrs by CellTiter-Glo assay; assay type: functional, cell-based
[9] = Toxicity in BALB/c mouse xenografted with mouse CT26 cells assessed as pathological changes in lung at 30 mg/kg, ip QD by hematoxylin and eosin staining based microscopic analysis; assay type: organism-based; settings: in vivo
[10] = system: HCT-116; test: Induction of apoptosis in Wnt-dependent human HCT-116 cells assessed as early apoptotic cells at 20 uM incubated for 24 hrs by Annexin V-Alexa Fluor 647/PI staining based flow cytomtery (Rvb=14.3%); assay type: functional
[11] = target: T1, beta-catenin-B-cell lymphoma 9 protein complex (Homo sapiens, UniProt P35222); test: Inhibition of beta-catenin/BCL9 protein-protein interaction in Wnt-independent human A549 cells assessed as reduction in Axin2 expression level by qRT-PCR assay; assay type: cell-based
T1 sequence (P35222 whole entry): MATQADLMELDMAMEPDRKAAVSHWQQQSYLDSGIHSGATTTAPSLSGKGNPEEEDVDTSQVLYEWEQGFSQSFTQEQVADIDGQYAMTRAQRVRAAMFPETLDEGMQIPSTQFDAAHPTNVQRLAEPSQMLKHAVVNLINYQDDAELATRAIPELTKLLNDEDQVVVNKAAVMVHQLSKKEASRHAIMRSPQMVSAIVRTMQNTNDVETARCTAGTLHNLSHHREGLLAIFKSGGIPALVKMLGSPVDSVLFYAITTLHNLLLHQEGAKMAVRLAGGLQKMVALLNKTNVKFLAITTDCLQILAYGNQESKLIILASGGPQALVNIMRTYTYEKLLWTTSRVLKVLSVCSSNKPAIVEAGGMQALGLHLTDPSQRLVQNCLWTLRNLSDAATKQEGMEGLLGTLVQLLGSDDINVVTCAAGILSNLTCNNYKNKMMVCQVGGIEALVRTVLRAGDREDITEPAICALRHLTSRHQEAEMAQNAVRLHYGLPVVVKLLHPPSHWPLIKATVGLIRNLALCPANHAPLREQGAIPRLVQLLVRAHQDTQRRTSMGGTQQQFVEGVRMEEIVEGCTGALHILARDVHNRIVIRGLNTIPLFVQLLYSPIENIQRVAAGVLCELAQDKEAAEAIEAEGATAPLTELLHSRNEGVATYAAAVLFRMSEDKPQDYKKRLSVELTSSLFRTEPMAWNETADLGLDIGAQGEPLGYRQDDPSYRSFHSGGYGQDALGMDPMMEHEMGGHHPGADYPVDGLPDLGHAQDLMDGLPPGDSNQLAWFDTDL
T1 sequence (O00512 whole entry): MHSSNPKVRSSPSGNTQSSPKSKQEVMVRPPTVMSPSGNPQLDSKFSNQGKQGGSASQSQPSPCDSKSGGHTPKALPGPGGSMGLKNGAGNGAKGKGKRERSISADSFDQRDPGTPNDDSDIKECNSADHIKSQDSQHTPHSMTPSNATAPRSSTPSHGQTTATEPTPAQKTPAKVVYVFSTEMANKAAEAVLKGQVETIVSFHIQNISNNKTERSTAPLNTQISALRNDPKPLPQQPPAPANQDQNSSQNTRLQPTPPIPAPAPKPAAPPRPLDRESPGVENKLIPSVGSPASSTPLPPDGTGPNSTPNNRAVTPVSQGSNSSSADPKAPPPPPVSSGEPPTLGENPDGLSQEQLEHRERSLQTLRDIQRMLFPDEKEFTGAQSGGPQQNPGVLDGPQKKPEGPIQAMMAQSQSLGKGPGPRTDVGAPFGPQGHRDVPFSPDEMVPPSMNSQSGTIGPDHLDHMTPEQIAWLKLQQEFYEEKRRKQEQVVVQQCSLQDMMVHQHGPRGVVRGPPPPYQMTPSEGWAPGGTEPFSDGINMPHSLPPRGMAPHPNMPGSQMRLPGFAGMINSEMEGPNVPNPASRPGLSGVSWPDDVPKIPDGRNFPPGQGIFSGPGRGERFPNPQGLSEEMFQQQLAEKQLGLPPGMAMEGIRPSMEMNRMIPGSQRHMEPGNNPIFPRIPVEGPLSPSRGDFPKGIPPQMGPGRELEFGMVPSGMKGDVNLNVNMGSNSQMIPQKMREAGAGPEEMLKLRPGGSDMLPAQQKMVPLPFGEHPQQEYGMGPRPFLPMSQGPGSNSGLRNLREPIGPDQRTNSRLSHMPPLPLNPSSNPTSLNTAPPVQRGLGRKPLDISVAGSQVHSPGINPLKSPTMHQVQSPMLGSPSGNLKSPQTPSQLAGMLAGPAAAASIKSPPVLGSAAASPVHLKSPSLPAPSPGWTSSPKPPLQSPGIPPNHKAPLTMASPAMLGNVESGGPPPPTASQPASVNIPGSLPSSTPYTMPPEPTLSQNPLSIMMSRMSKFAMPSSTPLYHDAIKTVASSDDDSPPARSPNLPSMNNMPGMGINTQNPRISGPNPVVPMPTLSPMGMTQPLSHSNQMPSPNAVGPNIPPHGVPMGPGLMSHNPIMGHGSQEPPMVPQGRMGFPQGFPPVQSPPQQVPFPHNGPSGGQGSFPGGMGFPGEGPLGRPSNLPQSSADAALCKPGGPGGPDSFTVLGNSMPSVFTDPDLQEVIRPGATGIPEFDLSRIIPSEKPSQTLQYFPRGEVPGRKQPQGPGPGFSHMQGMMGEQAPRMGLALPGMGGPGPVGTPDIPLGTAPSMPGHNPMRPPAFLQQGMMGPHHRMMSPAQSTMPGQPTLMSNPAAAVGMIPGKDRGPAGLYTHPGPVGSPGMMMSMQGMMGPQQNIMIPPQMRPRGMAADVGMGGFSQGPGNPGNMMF

CL/F [3] [mL/min/kg]	Cmax [6] [ng/mL]	IC50 [11] [µM]	SMILES	Activity [1] [%]	Activity [2]	Activity [4]	Activity [5]	Activity [7]	Activity [8]	Activity [9]	Activity [10] [%]
20.1	6960	–	CC(C)c1ccc(-c2cccc(S(=O)(=O)N3CCCC(c4cccc(OC(C)(C)C(=O)NS(=O)(=O)c5ccc(C(F)(F)F)cc5)c4)C3)c2)cc1 (stereo unspecified)	16.7	Non-Toxic	Non-Toxic	Active	Non-Toxic	inactive	Non-Toxic	26.4
–	–	24.7	O=C1[C@H](Cc2ccc(O)cc2)N2C(=O)CCN(C(=O)NCc3ccccc3)[C@H]2CN1Cc1cccc2ccccc12	–	–	–	–	–	–	–	–
